Literature values as cited in patent publication US20060252804A1, “Flupirtin injectable galenic form” (AWD.pharma GMBH &Co. KG, priority 2003, published 2006).

Conditions: in aqueous solutions and in most physiologically tolerated organic solvents

## CCOC(=O)Nc1ccc(NCc2ccc(F)cc2)nc1N [flupirtine, 2-amino-3-carbethoxyamino-6-(4-fluorobenzylamino)pyridine]
  solubility: scarcely soluble
